Key:
dopamine receptors = conditions: prior art, in words; cited from earlier work
σ receptors = conditions: prior art, in words; cited from earlier work
5HT2 receptor = target: T1, 5HT2 receptor (Rattus norvegicus, UniProt P14842); experiment: 5HT2 receptor binding ([3H]spiroperidol); conditions: [3H]spiroperidol 1 nM, rat cortex tissue, pH 7.4, 37° C., 15 minutes
T1 construct: receptor preparation (cortex tissue, 0.5 mg protein/ml); from tissue; host or cells: rat cortex membranes
Experimental: (§1) After the decapitation of rats the objective tissues were rapidly removed and each was weighed. Each tissue was homogenized with twenty-fold amount of ice-cold 50 mM […] buffer (pH7.8) homogenized, and centrifuged at 40,000×g for 10 minutes. The supernatant was removed and pellets were then resuspended in the buffer and recentrifuged. The procedure is repeated 3 times. Then these obtained samples were freeze-dried in liquid nitrogen and preserved at -80° C. On the test day the sample was thawed at room temperature and centrifuged at 40,000×g for 10 minutes, the pellets were then suspended in an incubation buffer and used as the receptor preparation. The preparation was added to the mixture containing the labelled ligand and the test drug, and filtered through Whatman GF/C filters and washed to terminate the reaction. Radioactivity on the filters was determined by a liquid scintillation counter and Ki value was calculated.
5HT2 receptor binding was initiated by the addition of the receptor preparation (cortex tissue, 0.5 mg protein/ml) to a mixture containing 1 nM of [^3 H]spiroperidol and the test compound dissolved in 50 mM Tris-HCl buffer (pH 7.4). Incubation was carried out at 37° C. for 15 minutes. Specific 5HT2 receptor binding was defined as the difference in amount of [^3 H]spiroperidol bound to the tissue in the presence or the absence of 1 mM serotonin.

PCP receptor = PCP receptor binding ([3H]TCP); conditions: [3H]TCP 5 nM, rat cortex tissue, pH 7.8, 25° C., 30 minutes
Experimental: as §1
PCP receptor binding was initiated by the addition of the receptor preparation (cortex tissue, 0.2 mg protein/ml) to a mixture containing 5 nM of [^3 H]TCP and the test compound dissolved in 5 mM Tris-HCl buffer (pH 7.8). Incubation was carried out at 25° C. for 30 minutes. Specific PCP receptor binding was defined as the difference in amount of [^3 H]TCP bound to the tissue in the presence or the absence of 10 μM PCP.

DA2 receptor = target: T2, DA2 receptor (Rattus norvegicus, UniProt P61169); experiment: DA2 receptor binding ([3H]spiroperidol); conditions: [3H]spiroperidol 0.2 nM, rat striatal tissue, pH 7.4, 37° C., 10 minutes
T2 construct: receptor preparation (striatal tissue, 0.3 mg protein/ml); from tissue; host or cells: rat striatal membranes
Experimental: as §1
DA2 receptor binding was initiated by the addition of the receptor preparation (striatal tissue, 0.3 mg protein/ml) to a mixture containing 0.2 nM of [^3 H]spiroperidol and the test compound dissolved in 50 mM Tris-HCl buffer containing 100 mM-NaCl and 5 mM-KCl (pH 7.4). Incubation was carried out at 37° C. for 10 minutes. Specific DA2 receptor binding was defined as the difference in amount of [^3 H]spiroperidol bound to the tissue in the presence or the absence of 10 μM haloperidol.

σ receptor = σ receptor binding ([3H]3PPP); conditions: [3H]3PPP 5 nM, rat cortex tissue, pH 7.8, 25° C., 90 minutes
Experimental: as §1
Sigma receptor binding was initiated by the addition of the receptor preparation (cortex tissue, 0.7 mg protein/ml) to a mixture containing 5 nM of [^3 H]3PPP [3-hydroxyphenyl-N-(1-propyl)piperidine] and the test compound dissolved in 50 mM Tris-HCl buffer (pH 7.8). Incubation was carried out at 25° C. for 90 minutes. Specific sigma receptor binding was defined as the difference in amount of [^3 H]3PPP bound to the tissue in the presence or the absence of 10 μM haloperidol.

T1 sequence (P14842 whole entry): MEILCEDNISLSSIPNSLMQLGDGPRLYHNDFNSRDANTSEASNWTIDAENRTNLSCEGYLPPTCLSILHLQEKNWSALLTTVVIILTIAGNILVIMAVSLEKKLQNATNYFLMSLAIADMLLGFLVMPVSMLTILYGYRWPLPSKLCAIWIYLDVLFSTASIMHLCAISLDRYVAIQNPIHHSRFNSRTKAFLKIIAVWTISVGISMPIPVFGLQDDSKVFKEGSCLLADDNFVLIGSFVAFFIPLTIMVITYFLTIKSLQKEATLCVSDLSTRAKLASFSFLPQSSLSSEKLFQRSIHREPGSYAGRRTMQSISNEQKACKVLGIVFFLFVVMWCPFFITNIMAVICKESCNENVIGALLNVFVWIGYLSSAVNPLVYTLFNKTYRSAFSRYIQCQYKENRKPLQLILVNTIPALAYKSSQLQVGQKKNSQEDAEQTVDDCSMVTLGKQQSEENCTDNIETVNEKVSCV
T2 sequence (P61169 whole entry): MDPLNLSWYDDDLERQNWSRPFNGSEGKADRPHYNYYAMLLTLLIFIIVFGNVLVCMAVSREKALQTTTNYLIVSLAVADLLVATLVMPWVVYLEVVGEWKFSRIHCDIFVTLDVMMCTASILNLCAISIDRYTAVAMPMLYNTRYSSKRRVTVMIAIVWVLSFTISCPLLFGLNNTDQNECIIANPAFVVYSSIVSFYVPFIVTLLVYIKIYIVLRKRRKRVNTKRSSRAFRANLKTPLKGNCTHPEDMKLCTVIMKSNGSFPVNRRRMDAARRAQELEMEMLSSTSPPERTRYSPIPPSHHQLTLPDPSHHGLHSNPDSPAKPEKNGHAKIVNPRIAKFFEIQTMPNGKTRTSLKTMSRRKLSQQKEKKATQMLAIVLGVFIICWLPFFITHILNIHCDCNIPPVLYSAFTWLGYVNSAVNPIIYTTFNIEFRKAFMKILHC

## OC(CCCN1CCN(c2ncc(F)cn2)CC1)c1ccc(F)cc1 (centres unmarked) [BMY 148021]
Dopamine receptors
  affinity to dopamine receptors: low affinity
σ receptors
  affinity to σ receptors: high affinity

## O=C1CCCN1C(=O)NCCCN1CC=C(c2ccc(C(F)(F)F)cc2)CC1 [I a-2]
5HT2 receptor
  Ki: 0.55 µM
PCP receptor
  Ki: 31 µM
DA2 receptor
  Ki: 4.7 µM
σ receptor
  Ki: 0.0041 µM

## CCCc1ccc(C2=CCN(CCCNC(=O)N3CCCC3=O)CC2)cc1 [I a-3]
5HT2 receptor
  Ki: 1.7 µM
PCP receptor
  Ki: 15 µM
DA2 receptor
  Ki: 4 µM
σ receptor
  Ki: 0.0095 µM

## CC(C)(C)c1ccc(C2=CCN(CCCNC(=O)N3CCCC3=O)CC2)cc1 [I a-6]
5HT2 receptor
  Ki: 2.5 µM
PCP receptor
  Ki: 49 µM
DA2 receptor
  Ki: 2.2 µM
σ receptor
  Ki: 0.0027 µM

## CC(C)(C)c1ccc(C2=CCN(CCCC(=O)N3CCCC3=O)CC2)cc1 [I a-8]
5HT2 receptor
  Ki: 2.9 µM
PCP receptor
  Ki: > 62 µM
DA2 receptor
  Ki: 1.2 µM
σ receptor
  Ki: 0.0013 µM

## O=C(CCCN1CC=C(c2ccc(C(F)(F)F)cc2)CC1)N1CCCC1=O [I a-9]
5HT2 receptor
  Ki: 1.2 µM
PCP receptor
  Ki: 33 µM
DA2 receptor
  Ki: 1.6 µM
σ receptor
  Ki: 0.0061 µM

## CC(C)(C)c1ccc(C2=CCN(CCCNC(=O)N3CCCC3)CC2)cc1 [I a-11]
5HT2 receptor
  Ki: 4.4 µM
PCP receptor
  Ki: 23 µM
DA2 receptor
  Ki: 4.5 µM
σ receptor
  Ki: 0.0026 µM

## O=C1CCCN1C(=O)NCCCCCN1CC=C(c2ccc(C(F)(F)F)cc2)CC1 [I a-13]
5HT2 receptor
  Ki: 0.77 µM
PCP receptor
  Ki: 26 µM
DA2 receptor
  Ki: 0.32 µM
σ receptor
  Ki: 0.0022 µM

## Cc1ccc(C2=CCN(CCCN(CC(C)C)CC(C)C)CC2)cc1 [I a-24]
5HT2 receptor
  Ki: 0.38 µM
PCP receptor
  Ki: 32 µM
DA2 receptor
  Ki: 1.1 µM
σ receptor
  Ki: 0.0058 µM

## CNCCCN1CC=C(c2ccc(C(C)(C)C)cc2)CC1 [I a-30, 1-[(3-methylamino)propyl]-4-(4-tert-butylphenyl)-1,2,5,6-tetrahydropyridine]
5HT2 receptor
  Ki: 3.7 µM
PCP receptor
  Ki: > 63 µM
DA2 receptor
  Ki: 2 µM
σ receptor
  Ki: 0.0013 µM

## CC(C)(C)c1ccc(C2=CCN(CCCN3CCOCC3)CC2)cc1 [I a-35, 4-[3-{4-(4-tert-butylphenyl)-1,2,5,6-tetrahydropyridin-1-yl}propyl]morpholine]
5HT2 receptor
  Ki: 3.2 µM
PCP receptor
  Ki: 18 µM
DA2 receptor
  Ki: 4.6 µM
σ receptor
  Ki: 0.0018 µM

## CC1CCN(CCCN2CC=C(c3ccc(C(C)(C)C)cc3)CC2)CC1 [I a-56]
5HT2 receptor
  Ki: 8.9 µM
PCP receptor
  Ki: 44 µM
DA2 receptor
  Ki: 4.5 µM
σ receptor
  Ki: 0.0065 µM

## Cc1ccc(C2=CCN(CCCN3CCC(C)CC3)CC2)cc1 [I a-57]
5HT2 receptor
  Ki: 0.14 µM
PCP receptor
  Ki: 44 µM
DA2 receptor
  Ki: 2.4 µM
σ receptor
  Ki: 0.0063 µM

## CC(C)(C)c1ccc(C2=CCN(CCCN3CCSCC3)CC2)cc1 [I a-94]
5HT2 receptor
  Ki: 1.9 µM
PCP receptor
  Ki: 27 µM
DA2 receptor
  Ki: 1.4 µM
σ receptor
  Ki: 0.0013 µM

## Cc1ccc(C2=CCN(CCCN3CCOCC3)CC2)cc1 [I a-101]
5HT2 receptor
  Ki: 7.7 µM
PCP receptor
  Ki: > 63 µM
DA2 receptor
  Ki: 1.8 µM
σ receptor
  Ki: 0.00031 µM

## Clc1ccc(C2=CCN(CCCN3CCOCC3)CC2)cc1 [I a-102]
5HT2 receptor
  Ki: 5.7 µM
PCP receptor
  Ki: > 71 µM
DA2 receptor
  Ki: 3.2 µM
σ receptor
  Ki: 0.00071 µM

## FC(F)(F)c1ccc(C2=CCN(CCCOc3ccc(Cl)c(Cl)c3)CC2)cc1 [I a-111, 1-{3-(3,4-Dichlorophenoxy)propyl}-4-(4-trifluoromethylphenyl)-1,2,5,6-tetrahydropyridine]
5HT2 receptor
  Ki: 0.39 µM
PCP receptor
  Ki: > 63 µM
DA2 receptor
  Ki: 0.63 µM
σ receptor
  Ki: 0.0029 µM

## C[C@@H]1CN(CCCn2c3ccccc3c3ccccc32)C[C@H](C)N1 [rimcazole]
Dopamine receptors
  affinity to dopamine receptors: low affinity
σ receptors
  affinity to σ receptors: high affinity

Source: patent US5362873A, “Tetrahydropyridine derivatives” (Shionogi & Co., Ltd., priority 1990, dated 1994)
